Data as given in ChEMBL document CHEMBL3407472, “Multi-parameter optimization of aza-follow-ups to BI 207524, a thumb pocket 1 HCV NS5B polymerase inhibitor. Part 2: Impact of lipophilicity on promiscuity and in vivo toxicity” (Bioorg Med Chem Lett, 2015).
One block for each compound: values may come before it.

Assays:
Hepatitis C virus [1] = assay: Antiviral activity against Hepatitis C virus genotype 1b infected in human Huh cells assessed as inhibition of viral replication by RT-PCR-based replicon assay; type: functional, cell-based, Hepacivirus hominis
Hepatitis C virus [2] = assay: Antiviral activity against Hepatitis C virus genotype 1a infected in human Huh cells assessed as inhibition of viral replication by RT-PCR-based replicon assay; type: functional, cell-based, Hepacivirus hominis; details: subtype 1a
[3] = Half life in human liver microsomes at 2 uM; type: ADME
[4] = Lipophilicity, log D of the compound at pH 7.4; type: physicochemical; details: buffer
[5] = Half life in rat liver microsomes at 2 uM; type: ADME
[6] = Half life in cynomolgous monkey liver microsomes at 2 uM; type: ADME, Macaca fascicularis; details: cynomolgus monkey
[7] = Half life in dog liver microsomes at 2 uM; type: ADME, Canis lupus familiaris
[8] = Cmax in rat at 5 mg/kg, po and 2 mg/kg, iv; type: ADME, organism-based; details: in vivo
[9] = Cmax in cynomolgous monkey at 5 mg/kg, po and 2 mg/kg, iv; type: ADME, organism-based, Macaca fascicularis; details: cynomolgus monkey, in vivo
[10] = Cmax in dog at 5 mg/kg, po and 2 mg/kg, iv; type: ADME, organism-based, Canis lupus familiaris; details: in vivo
[11] = Half life in cynomolgous monkey at 5 mg/kg, po and 2 mg/kg, iv; type: ADME, organism-based, Macaca fascicularis; details: cynomolgus monkey, in vivo
[12] = Half life in rat at 5 mg/kg, po and 2 mg/kg, iv; type: ADME, organism-based; details: in vivo
[13] = AUC in rat at 5 mg/kg, po and 2 mg/kg, iv; type: ADME, organism-based; details: plasma
[14] = AUC in cynomolgous monkey at 5 mg/kg, po and 2 mg/kg, iv; type: ADME, organism-based, Macaca fascicularis; details: cynomolgus monkey, plasma
[15] = AUC in dog at 5 mg/kg, po and 2 mg/kg, iv; type: ADME, organism-based, Canis lupus familiaris; details: plasma
[16] = Half life in dog at 5 mg/kg, po and 2 mg/kg, iv; type: ADME, organism-based, Canis lupus familiaris; details: in vivo
[17] = Volume of distribution at steady state in rat at 5 mg/kg, po and 2 mg/kg, iv; type: ADME, organism-based; details: in vivo, read-out: Vdss
[18] = Volume of distribution at steady state in cynomolgous monkey at 5 mg/kg, po and 2 mg/kg, iv; type: ADME, organism-based, Macaca fascicularis; details: cynomolgus monkey, in vivo, read-out: Vdss
[19] = Volume of distribution at steady state in dog at 5 mg/kg, po and 2 mg/kg, iv; type: ADME, organism-based, Canis lupus familiaris; details: in vivo, read-out: Vdss
[20] = Clearance in rat at 5 mg/kg, po and 2 mg/kg, iv; type: ADME, organism-based; details: in vivo
[21] = Clearance in cynomolgous monkey at 5 mg/kg, po and 2 mg/kg, iv; type: ADME, organism-based, Macaca fascicularis; details: cynomolgus monkey, in vivo
[22] = Clearance in dog at 5 mg/kg, po and 2 mg/kg, iv; type: ADME, organism-based, Canis lupus familiaris; details: in vivo
[23] = Bioavailability in rat at 5 mg/kg, po and 2 mg/kg, iv; type: ADME, organism-based; details: in vivo
[24] = Bioavailability in cynomolgous monkey at 5 mg/kg, po and 2 mg/kg, iv; type: ADME, organism-based, Macaca fascicularis; details: cynomolgus monkey, in vivo
[25] = Bioavailability in dog at 5 mg/kg, po and 2 mg/kg, iv; type: ADME, organism-based, Canis lupus familiaris; details: in vivo
[26] = Ratio of drug uptake in liver to plasma of rat at 5 mg/kg, po and 2 mg/kg, iv after 6 to 8 hrs; type: ADME, organism-based
[27] = Cmax in rat at 2 mg/kg, po each in 0.5% Methylcellulose and 0.3% Tween-80 and 1% N-methylpyrrolidone; type: ADME, organism-based; parameters: dose 2 mg/kg, route oral; details: in vivo
[28] = Lipophilicity, log D of the compound; type: physicochemical; details: octanol/water
[29] = target: T1, Amine oxidase [flavin-containing] A (Homo sapiens, UniProt P21397); assay: Inhibition of MAO-A (unknown origin)
T1 sequence (P21397 whole entry): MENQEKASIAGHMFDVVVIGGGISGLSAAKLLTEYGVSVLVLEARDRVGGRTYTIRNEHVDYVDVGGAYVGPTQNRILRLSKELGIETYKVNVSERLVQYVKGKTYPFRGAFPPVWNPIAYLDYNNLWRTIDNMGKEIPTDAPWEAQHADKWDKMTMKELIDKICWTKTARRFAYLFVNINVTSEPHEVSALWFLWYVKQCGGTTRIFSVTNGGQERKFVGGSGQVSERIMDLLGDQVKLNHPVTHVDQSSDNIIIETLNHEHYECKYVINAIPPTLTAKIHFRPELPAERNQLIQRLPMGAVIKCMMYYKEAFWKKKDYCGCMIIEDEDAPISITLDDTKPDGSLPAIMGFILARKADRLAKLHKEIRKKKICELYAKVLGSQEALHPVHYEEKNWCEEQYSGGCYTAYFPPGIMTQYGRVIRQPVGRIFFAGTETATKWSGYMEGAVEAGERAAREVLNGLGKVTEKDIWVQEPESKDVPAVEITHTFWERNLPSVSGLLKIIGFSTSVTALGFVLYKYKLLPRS

D(1A) dopamine receptor = D(1A) dopamine receptor (Homo sapiens, UniProt P21728); assay: Inhibition of dopamine D1 receptor (unknown origin)
Cathepsin G = target: T2, Cathepsin G (Homo sapiens, UniProt P08311); assay: Inhibition of cathepsin G (unknown origin)
T2 sequence (P08311 whole entry): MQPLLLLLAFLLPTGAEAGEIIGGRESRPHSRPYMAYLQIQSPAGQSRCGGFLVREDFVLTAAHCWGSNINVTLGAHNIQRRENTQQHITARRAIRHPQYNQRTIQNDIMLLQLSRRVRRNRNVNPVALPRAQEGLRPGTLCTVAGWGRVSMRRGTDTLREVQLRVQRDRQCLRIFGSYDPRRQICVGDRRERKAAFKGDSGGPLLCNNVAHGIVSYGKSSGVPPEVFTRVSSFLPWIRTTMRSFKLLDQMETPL

[30] = target: 5-hydroxytryptamine receptor 2A (Homo sapiens, UniProt P28223); assay: Inhibition of serotonin 5-HT2A receptor (unknown origin)
Glucocorticoid receptor = target: T3, Glucocorticoid receptor (Homo sapiens, UniProt P04150); assay: Inhibition of glucocorticoid receptor (unknown origin)
T3 sequence (P04150 whole entry): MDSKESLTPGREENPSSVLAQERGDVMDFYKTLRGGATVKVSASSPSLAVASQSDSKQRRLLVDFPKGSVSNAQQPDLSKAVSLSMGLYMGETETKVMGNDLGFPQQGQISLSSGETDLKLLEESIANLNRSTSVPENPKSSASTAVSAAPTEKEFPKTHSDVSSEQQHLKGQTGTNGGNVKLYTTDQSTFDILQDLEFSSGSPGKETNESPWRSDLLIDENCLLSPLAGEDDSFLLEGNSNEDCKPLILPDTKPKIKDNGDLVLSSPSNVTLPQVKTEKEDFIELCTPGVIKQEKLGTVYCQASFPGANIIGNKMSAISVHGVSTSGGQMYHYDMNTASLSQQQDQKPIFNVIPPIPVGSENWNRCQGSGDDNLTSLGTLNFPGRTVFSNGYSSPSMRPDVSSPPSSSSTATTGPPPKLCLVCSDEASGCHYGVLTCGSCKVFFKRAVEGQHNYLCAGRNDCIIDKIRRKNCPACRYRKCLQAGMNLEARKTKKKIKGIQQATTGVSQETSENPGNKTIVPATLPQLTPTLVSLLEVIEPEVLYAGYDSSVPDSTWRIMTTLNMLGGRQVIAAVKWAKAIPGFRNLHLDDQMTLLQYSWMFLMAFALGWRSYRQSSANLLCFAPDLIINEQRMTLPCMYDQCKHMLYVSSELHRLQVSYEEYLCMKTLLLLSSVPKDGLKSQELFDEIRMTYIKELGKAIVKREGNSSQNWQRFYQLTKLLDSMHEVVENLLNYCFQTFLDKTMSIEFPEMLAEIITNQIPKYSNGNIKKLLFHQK

[31] = target: T4, Prostaglandin G/H synthase 2 (Homo sapiens, UniProt P35354); assay: Inhibition of COX2 (unknown origin)
T4 sequence (P35354 whole entry): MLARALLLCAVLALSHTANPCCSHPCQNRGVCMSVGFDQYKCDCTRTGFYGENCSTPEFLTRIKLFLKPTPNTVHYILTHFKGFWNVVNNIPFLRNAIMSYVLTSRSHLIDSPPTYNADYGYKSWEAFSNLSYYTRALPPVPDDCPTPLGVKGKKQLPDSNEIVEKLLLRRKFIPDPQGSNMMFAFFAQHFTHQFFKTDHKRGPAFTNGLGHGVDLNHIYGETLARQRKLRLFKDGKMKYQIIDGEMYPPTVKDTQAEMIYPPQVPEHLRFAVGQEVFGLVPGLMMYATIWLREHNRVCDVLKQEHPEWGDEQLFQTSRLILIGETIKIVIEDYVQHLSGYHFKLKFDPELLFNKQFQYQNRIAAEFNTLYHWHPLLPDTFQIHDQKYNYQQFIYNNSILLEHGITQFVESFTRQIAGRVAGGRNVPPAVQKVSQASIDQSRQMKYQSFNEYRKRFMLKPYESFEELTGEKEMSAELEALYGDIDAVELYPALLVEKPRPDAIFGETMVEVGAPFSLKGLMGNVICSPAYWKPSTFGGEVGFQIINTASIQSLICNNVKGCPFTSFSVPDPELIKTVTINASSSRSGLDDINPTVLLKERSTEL

[32] = target: T5, Polyunsaturated fatty acid 5-lipoxygenase (Homo sapiens, UniProt P09917); assay: Inhibition of 5-LO (unknown origin)
T5 sequence (P09917 whole entry): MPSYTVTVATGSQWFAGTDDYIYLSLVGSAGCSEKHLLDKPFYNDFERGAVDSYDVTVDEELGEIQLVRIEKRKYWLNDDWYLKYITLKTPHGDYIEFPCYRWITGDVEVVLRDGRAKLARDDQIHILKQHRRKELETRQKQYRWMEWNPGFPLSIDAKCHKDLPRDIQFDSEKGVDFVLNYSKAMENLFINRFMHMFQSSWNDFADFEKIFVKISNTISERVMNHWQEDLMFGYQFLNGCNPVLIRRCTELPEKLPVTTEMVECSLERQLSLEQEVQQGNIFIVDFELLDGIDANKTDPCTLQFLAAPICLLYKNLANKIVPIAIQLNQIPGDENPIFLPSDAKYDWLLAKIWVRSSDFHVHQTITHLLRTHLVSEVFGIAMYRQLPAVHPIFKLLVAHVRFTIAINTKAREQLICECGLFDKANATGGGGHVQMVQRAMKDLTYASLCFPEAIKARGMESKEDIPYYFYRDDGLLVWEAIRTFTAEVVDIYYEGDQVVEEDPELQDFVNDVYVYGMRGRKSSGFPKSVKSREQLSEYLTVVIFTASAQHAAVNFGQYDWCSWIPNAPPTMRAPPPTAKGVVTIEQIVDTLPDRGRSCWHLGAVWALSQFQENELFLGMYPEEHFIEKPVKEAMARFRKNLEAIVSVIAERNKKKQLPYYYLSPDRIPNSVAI

[33] = target: GABA-A receptor; agonist GABA site; assay: Inhibition of GABAA receptor (unknown origin); type: protein-complex assay, Homo sapiens
[34] = target: T6, Alpha-2A adrenergic receptor (Homo sapiens, UniProt P08913); assay: Inhibition of alpha2A adrenergic receptor (unknown origin)
T6 sequence (P08913 whole entry): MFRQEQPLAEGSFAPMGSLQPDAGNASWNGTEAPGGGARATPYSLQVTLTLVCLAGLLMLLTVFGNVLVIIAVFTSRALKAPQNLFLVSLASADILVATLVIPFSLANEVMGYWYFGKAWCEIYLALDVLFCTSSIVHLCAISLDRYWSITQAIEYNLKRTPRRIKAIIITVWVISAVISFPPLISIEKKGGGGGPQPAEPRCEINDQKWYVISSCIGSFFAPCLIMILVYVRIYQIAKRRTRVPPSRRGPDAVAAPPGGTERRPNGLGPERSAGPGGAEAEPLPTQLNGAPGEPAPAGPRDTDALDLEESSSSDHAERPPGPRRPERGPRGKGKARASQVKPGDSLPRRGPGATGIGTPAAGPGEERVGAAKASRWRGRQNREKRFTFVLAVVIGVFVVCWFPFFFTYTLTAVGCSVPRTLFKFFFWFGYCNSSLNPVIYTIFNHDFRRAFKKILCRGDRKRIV

Sequence of D(1A) dopamine receptor (P21728 whole entry): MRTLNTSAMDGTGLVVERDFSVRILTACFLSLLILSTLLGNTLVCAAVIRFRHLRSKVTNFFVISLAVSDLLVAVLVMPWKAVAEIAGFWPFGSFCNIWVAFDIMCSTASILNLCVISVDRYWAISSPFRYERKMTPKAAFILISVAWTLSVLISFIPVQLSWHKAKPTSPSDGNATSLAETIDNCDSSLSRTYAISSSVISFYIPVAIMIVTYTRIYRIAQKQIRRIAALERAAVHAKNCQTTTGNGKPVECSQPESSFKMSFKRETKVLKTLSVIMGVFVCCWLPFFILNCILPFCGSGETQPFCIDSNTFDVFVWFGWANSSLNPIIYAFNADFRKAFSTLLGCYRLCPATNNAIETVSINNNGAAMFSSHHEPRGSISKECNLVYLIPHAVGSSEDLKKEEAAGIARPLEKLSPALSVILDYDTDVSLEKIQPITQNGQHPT
Sequence of 5-hydroxytryptamine receptor 2A (P28223 whole entry): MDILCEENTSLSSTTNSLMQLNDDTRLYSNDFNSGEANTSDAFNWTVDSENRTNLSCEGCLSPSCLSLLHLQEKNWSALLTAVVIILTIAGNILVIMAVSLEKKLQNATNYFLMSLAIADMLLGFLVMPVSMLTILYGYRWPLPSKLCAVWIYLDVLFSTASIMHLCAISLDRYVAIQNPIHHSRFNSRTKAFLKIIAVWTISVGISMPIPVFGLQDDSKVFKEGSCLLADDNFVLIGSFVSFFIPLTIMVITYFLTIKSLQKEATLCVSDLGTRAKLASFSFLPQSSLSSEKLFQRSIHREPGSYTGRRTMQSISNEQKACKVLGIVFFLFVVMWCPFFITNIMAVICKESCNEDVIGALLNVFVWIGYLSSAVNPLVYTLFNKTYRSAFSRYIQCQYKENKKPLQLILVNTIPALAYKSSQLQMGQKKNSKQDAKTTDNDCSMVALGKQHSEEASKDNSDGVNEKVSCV

EC50 (Hepatitis C virus [1]): 0.005 µM
EC50 (Hepatitis C virus [2]): 0.023 µM
half-life at 2 µM [3]: 1.5 h
logD [4]: 3.5
half-life at 2 µM [5]: 1.3 h
half-life at 2 µM [6]: 0.217 h
half-life at 2 µM [7]: 3.13 h
Cmax [8]: 3.6 µM
Cmax [9]: 0.44 µM
Cmax [10]: 7.2 µM
half-life [11]: 0.7 h
half-life [12]: 2.8 h
AUC [13]: 7.2 µM·h
AUC [14]: 1.2 µM·h
AUC [15]: 21 µM·h
half-life [16]: 2.3 h
Vd [17]: 1.43 L/kg
Vd [18]: 0.4 L/kg
Vd [19]: 0.48 L/kg
clearance [20]: 13.1 mL/min/kg
clearance [21]: 13.9 mL/min/kg
clearance [22]: 4.6 mL/min/kg
bioavailability [23]: 71%
bioavailability [24]: 12%
bioavailability [25]: 69%
Kp [26]: 13.5
Cmax [27]: 3.6 µM
logD [28]: 3.5
IC50 [29]: 1.3 µM
IC50 (D(1A) dopamine receptor): 6 µM
IC50 (Cathepsin G): 6 µM
IC50 [30]: 6 µM
Structure (SMILES): CCOc1nc(NC(=O)C(C)(C)NC(=O)c2ccc3c(C4CCCC4)c(-c4ccc(F)cn4)n(C)c3c2)ccc1/C=C/C(=O)O

IC50 [29]: < 10 µM
IC50 (D(1A) dopamine receptor): < 10 µM
IC50 (Glucocorticoid receptor): < 10 µM
IC50 [31]: < 10 µM
IC50 (Cathepsin G): < 10 µM
IC50 [32]: < 10 µM
IC50 [33]: < 10 µM
IC50 [34]: < 10 µM
Structure (SMILES): Cn1c(-c2ccccn2)c(C2CCCC2)c2ccc(C(=O)NC3(C(=O)Nc4ccc(/C=C/C(=O)O)cc4)CCC3)cc21 [BILB-1941]
